pIC50: −log10 of the molar value.
Tested on: 653999-131-R-J2-PDC complex spheroids, growth inhibition
Experiment: Anticancer human tumor 653999-131-R-J2-PDC patient-derived lung adenocarcinoma cell line growth inhibition [RAS]
Settings: for pIC50: curve of first compound; for viability, T/C: stronger effect = lower value; active = viability on the fitted dose curve at most 10% of control; inactive = the rest
How it was run: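 Agents were tested in combination matrices in half-log decrements from a top concentration at or near clinical Cmax (10 microM if undetermined). Targets were multi-cell spheroids of tumour lines plus HUVEC and MSC stromal cells.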
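Note: spheroids exposed to the agents for seven days before the readout.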

Nc1ccn(C2OC(CO)C(O)C2(F)F)c(=O)n1 (centres undefined) + CCn1c(-c2cc(N3CCN(C)CC3)cnc2C(C)OC)c2c3cc(ccc31)-c1csc(n1)CC(NC(=O)C1CC1C)C(=O)N1CCCC(N1)C(=O)OCC(C)(C)C2
8.20: pIC50 (second compound 0.003 µM)
inactive: viability, T/C (second compound 0.000949 µM, first compound 0.00316 µM) 67.6% | viability, T/C (second compound 0.000949 µM, first compound 0.01 µM) 57% | viability, T/C (second compound 0.000949 µM, first compound 0.0316 µM) 34.4% | viability, T/C (second compound 0.000949 µM, first compound 0.1 µM) 34.4% | viability, T/C (second compound 0.000949 µM, first compound 0.316 µM) 25.9% | viability, T/C (second compound 0.000949 µM, first compound 1 µM) 23% | viability, T/C (second compound 0.003 µM, first compound 0.00316 µM) 59.1% | viability, T/C (second compound 0.003 µM, first compound 0.01 µM) 43.1% | viability, T/C (second compound 0.003 µM, first compound 0.0316 µM) 31.8% | viability, T/C (second compound 0.003 µM, first compound 0.1 µM) 20.8% | viability, T/C (second compound 0.003 µM, first compound 0.316 µM) 16.2% | viability, T/C (second compound 0.003 µM, first compound 1 µM) 19.7% | viability, T/C (second compound 0.00949 µM, first compound 0.00316 µM) 45.6% | viability, T/C (second compound 0.00949 µM, first compound 0.01 µM) 30.9% | viability, T/C (second compound 0.00949 µM, first compound 0.0316 µM) 25% | viability, T/C (second compound 0.00949 µM, first compound 0.1 µM) 19.3% | viability, T/C (second compound 0.00949 µM, first compound 0.316 µM) 18.2% | viability, T/C (second compound 0.00949 µM, first compound 1 µM) 15.1% | viability, T/C (second compound 0.03 µM, first compound 0.00316 µM) 37.3% | viability, T/C (second compound 0.03 µM, first compound 0.01 µM) 29.4% | viability, T/C (second compound 0.03 µM, first compound 0.0316 µM) 20.3% | viability, T/C (second compound 0.03 µM, first compound 0.1 µM) 14.7% | viability, T/C (second compound 0.03 µM, first compound 0.316 µM) 12.8% | viability, T/C (second compound 0.03 µM, first compound 1 µM) 11.6% | viability, T/C (second compound 0.0949 µM, first compound 0.00316 µM) 26.7% | viability, T/C (second compound 0.0949 µM, first compound 0.01 µM) 30.3% | viability, T/C (second compound 0.0949 µM, first compound 0.0316 µM) 18.8% | viability, T/C (second compound 0.0949 µM, first compound 0.1 µM) 16.7% | viability, T/C (second compound 0.0949 µM, first compound 0.316 µM) 11.7% | viability, T/C (second compound 0.3 µM, first compound 0.00316 µM) 25.9% | viability, T/C (second compound 0.3 µM, first compound 0.01 µM) 24.5% | viability, T/C (second compound 0.3 µM, first compound 0.0316 µM) 20.7% | viability, T/C (second compound 0.3 µM, first compound 0.1 µM) 18.4% | viability, T/C (second compound 0.3 µM, first compound 0.316 µM) 13.9% | viability, T/C (second compound 0.3 µM, first compound 1 µM) 12.8%
active: viability, T/C (second compound 0.0949 µM, first compound 1 µM) 11%
7.85: pIC50 (second compound 0.000949 µM)
> 8.50: pIC50 (second compound 0.00949 µM) | pIC50 (second compound 0.03 µM) | pIC50 (second compound 0.0949 µM) | pIC50 (second compound 0.3 µM)

CC(C)NCC(C(=O)N1CCN(c2ncnc3c2C(C)CC3O)CC1)c1ccc(Cl)cc1 (centres undefined) + C=CC(=O)N1CCN(c2nc(OCC3CCCN3C)nc3c(F)c(-c4nc(N)cc(C)c4C(F)(F)F)c(Cl)cc23)C(C)C1
5.82: pIC50 (second compound 0.316 µM)
5.85: pIC50 (second compound 0.0316 µM)
5.88: pIC50 (second compound 0.00316 µM)
6.03: pIC50 (second compound 1 µM)
inactive: viability, T/C (second compound 0.00316 µM, first compound 0.0316 µM) 116% | viability, T/C (second compound 0.00316 µM, first compound 0.1 µM) 104% | viability, T/C (second compound 0.00316 µM, first compound 0.316 µM) 96.6% | viability, T/C (second compound 0.00316 µM, first compound 1 µM) 52% | viability, T/C (second compound 0.00316 µM, first compound 3.16 µM) 41.7% | viability, T/C (second compound 0.00316 µM, first compound 10 µM) 40.8% | viability, T/C (second compound 0.01 µM, first compound 0.0316 µM) 89.6% | viability, T/C (second compound 0.01 µM, first compound 0.1 µM) 100% | viability, T/C (second compound 0.01 µM, first compound 0.316 µM) 69.1% | viability, T/C (second compound 0.01 µM, first compound 1 µM) 61.1% | viability, T/C (second compound 0.01 µM, first compound 3.16 µM) 44.2% | viability, T/C (second compound 0.01 µM, first compound 10 µM) 40.9% | viability, T/C (second compound 0.0316 µM, first compound 0.0316 µM) 98.6% | viability, T/C (second compound 0.0316 µM, first compound 0.1 µM) 97.3% | viability, T/C (second compound 0.0316 µM, first compound 0.316 µM) 73.9% | viability, T/C (second compound 0.0316 µM, first compound 1 µM) 54% | viability, T/C (second compound 0.0316 µM, first compound 3.16 µM) 43.6% | viability, T/C (second compound 0.0316 µM, first compound 10 µM) 35.5% | viability, T/C (second compound 0.1 µM, first compound 0.0316 µM) 104% | viability, T/C (second compound 0.1 µM, first compound 0.1 µM) 95.1% | viability, T/C (second compound 0.1 µM, first compound 0.316 µM) 76.2% | viability, T/C (second compound 0.1 µM, first compound 1 µM) 52.9% | viability, T/C (second compound 0.1 µM, first compound 3.16 µM) 45.1% | viability, T/C (second compound 0.1 µM, first compound 10 µM) 37.7% | viability, T/C (second compound 0.316 µM, first compound 0.0316 µM) 90.2% | viability, T/C (second compound 0.316 µM, first compound 0.1 µM) 95.9% | viability, T/C (second compound 0.316 µM, first compound 0.316 µM) 82.6% | viability, T/C (second compound 0.316 µM, first compound 1 µM) 53.8% | viability, T/C (second compound 0.316 µM, first compound 3.16 µM) 44.8% | viability, T/C (second compound 0.316 µM, first compound 10 µM) 39.6% | viability, T/C (second compound 1 µM, first compound 0.0316 µM) 98.9% | viability, T/C (second compound 1 µM, first compound 0.1 µM) 87.7% | viability, T/C (second compound 1 µM, first compound 0.316 µM) 81.5% | viability, T/C (second compound 1 µM, first compound 1 µM) 46.9% | viability, T/C (second compound 1 µM, first compound 3.16 µM) 43.5% | viability, T/C (second compound 1 µM, first compound 10 µM) 41.1%
5.71: pIC50 (second compound 0.01 µM)
5.81: pIC50 (second compound 0.1 µM)
